# Experimental data from ChEMBL document CHEMBL1201862, “PubChem BioAssay data set” (2004).
#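 Interpolation was linear, between the two tested concentrations surrounding the appropriate level; five concentrations were tested over 48 hours in 96-well plates. GI50 is the concentration that inhibits growth by half.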 Activity calls are given as the source filed them. Rule as the data show it: active = GI50 up to about 1.1 µM and inactive = higher.
# Columns and labels:
# Experiment in all cases: NCI-60 cell line screen, 48 h
# 786-0 = tested on: 786-0
# A498 = tested on: A498
# A549 = tested on: A549
# ACHN = tested on: ACHN
# BT-549 = tested on: BT-549
# CAKI-1 = tested on: CAKI-1
# CCRF-CEM = tested on: CCRF-CEM
# COLO 205 = tested on: COLO 205
# DU-145 = tested on: DU-145
# EKVX = tested on: EKVX
# HCC 2998 = tested on: HCC 2998
# HCT-116 = tested on: HCT-116
# HCT-15 = tested on: HCT-15
# HL-60 = tested on: HL-60
# HOP-62 = tested on: HOP-62
# HOP-92 = tested on: HOP-92
# HT-29 = tested on: HT-29
# Hs-578T = tested on: Hs-578T
# IGROV-1 = tested on: IGROV-1
# K562 = tested on: K562
# KM12 = tested on: KM12
# LOX IMVI = tested on: LOX IMVI
# M14 = tested on: M14
# MCF7 = tested on: MCF7
# MDA-MB-231 = tested on: MDA-MB-231
# MDA-MB-435 = tested on: MDA-MB-435
# MDA-N = tested on: MDA-N
# MOLT-4 = tested on: MOLT-4
# Malme-3M = tested on: Malme-3M
# NCI-H226 = tested on: NCI-H226
# NCI-H23 = tested on: NCI-H23
# NCI-H460 = tested on: NCI-H460
# NCI-H522 = tested on: NCI-H522
# NCI/ADR-RES = tested on: NCI/ADR-RES
# OVCAR-3 = tested on: OVCAR-3
# OVCAR-4 = tested on: OVCAR-4
# PC-3 = tested on: PC-3
# RPMI-8226 = tested on: RPMI-8226
# RXF 393 = tested on: RXF 393
# SF-268 = tested on: SF-268
# SF-295 = tested on: SF-295
# SF-539 = tested on: SF-539
# SK-MEL-28 = tested on: SK-MEL-28
# SK-MEL-2 = tested on: SK-MEL-2
# SK-MEL-5 = tested on: SK-MEL-5
# SK-OV-3 = tested on: SK-OV-3
# SN12C = tested on: SN12C
# SNB-19 = tested on: SNB-19
# SNB-75 = tested on: SNB-75
# SR = tested on: SR
# SW-620 = tested on: SW-620
# TK-10 = tested on: TK-10
# U-251 = tested on: U-251
# UACC-257 = tested on: UACC-257
# UACC-62 = tested on: UACC-62
# UO-31 = tested on: UO-31
# OVCAR-5 = tested on: OVCAR-5
# OVCAR-8 = tested on: OVCAR-8
smiles,measurement,setting,value
CCOC(=O)C1=C(Cl)c2cccnc2C1=O,GI50,786-0,44 µM (inactive)
same,GI50,A498,> 100 µM (inactive)
same,GI50,A549,55.7 µM (inactive)
same,GI50,ACHN,35.4 µM (inactive)
same,GI50,BT-549,45.4 µM (inactive)
same,GI50,CAKI-1,54.6 µM (inactive)
same,GI50,CCRF-CEM,26.4 µM (inactive)
same,GI50,COLO 205,43.4 µM (inactive)
same,GI50,DU-145,21.5 µM (inactive)
same,GI50,EKVX,62.5 µM (inactive)
same,GI50,HCC 2998,61.7 µM (inactive)
same,GI50,HCT-116,27.4 µM (inactive)
same,GI50,HCT-15,53.7 µM
same,GI50,HL-60,> 100 µM (inactive)
same,GI50,HOP-62,32.2 µM (inactive)
same,GI50,HOP-92,> 100 µM (inactive)
same,GI50,HT-29,81.7 µM (inactive)
same,GI50,Hs-578T,27.7 µM (inactive)
same,GI50,IGROV-1,52.8 µM (inactive)
same,GI50,K562,54.7 µM (inactive)
same,GI50,KM12,> 100 µM (inactive)
same,GI50,LOX IMVI,23.7 µM (inactive)
same,GI50,M14,54.2 µM (inactive)
same,GI50,MCF7,38.5 µM (inactive)
same,GI50,MDA-MB-231,> 100 µM (inactive)
same,GI50,MDA-MB-435,28 µM (inactive)
same,GI50,MDA-N,34.9 µM (inactive)
same,GI50,MOLT-4,34 µM (inactive)
same,GI50,Malme-3M,31.3 µM (inactive)
same,GI50,NCI-H226,> 100 µM (inactive)
same,GI50,NCI-H23,16.4 µM (inactive)
same,GI50,NCI-H460,> 100 µM (inactive)
same,GI50,NCI-H522,86.5 µM (inactive)
same,GI50,NCI/ADR-RES,> 100 µM (inactive)
same,GI50,OVCAR-3,19.8 µM (inactive)
same,GI50,OVCAR-4,> 100 µM (inactive)
same,GI50,PC-3,> 100 µM (inactive)
same,GI50,RPMI-8226,87.3 µM (inactive)
same,GI50,RXF 393,> 100 µM (inactive)
same,GI50,SF-268,55.2 µM (inactive)
same,GI50,SF-295,39.4 µM (inactive)
same,GI50,SF-539,82.6 µM (inactive)
same,GI50,SK-MEL-28,> 100 µM (inactive)
same,GI50,SK-MEL-2,> 100 µM (inactive)
same,GI50,SK-MEL-5,53.6 µM (inactive)
same,GI50,SK-OV-3,> 100 µM (inactive)
same,GI50,SN12C,52.4 µM (inactive)
same,GI50,SNB-19,53 µM (inactive)
same,GI50,SNB-75,13 µM (inactive)
same,GI50,SR,11.4 µM (inactive)
same,GI50,SW-620,30.3 µM (inactive)
same,GI50,TK-10,> 100 µM (inactive)
same,GI50,U-251,35.6 µM (inactive)
same,GI50,UACC-257,39.7 µM (inactive)
same,GI50,UACC-62,> 100 µM (inactive)
same,GI50,UO-31,> 100 µM (inactive)
COC(=O)C(COC(=O)/C=C/c1ccc(OC(C)=O)c(OC(C)=O)c1)OC(=O)/C=C/c1ccc(OC(C)=O)c(OC(C)=O)c1 (stereo unspecified),GI50,786-0,11.8 µM (inactive)
same,GI50,A498,16.5 µM (inactive)
same,GI50,A549,16.7 µM (inactive)
same,GI50,ACHN,14.5 µM (inactive)
same,GI50,BT-549,15.1 µM (inactive)
same,GI50,CAKI-1,6.87 µM (inactive)
same,GI50,CCRF-CEM,3.38 µM (inactive)
same,GI50,COLO 205,15.9 µM (inactive)
same,GI50,DU-145,12.1 µM (inactive)
same,GI50,EKVX,17.5 µM (inactive)
same,GI50,HCC 2998,17.5 µM (inactive)
same,GI50,HCT-116,4.14 µM (inactive)
same,GI50,HCT-15,5.38 µM
same,GI50,HOP-62,10.2 µM (inactive)
same,GI50,HOP-92,18 µM (inactive)
same,GI50,HT-29,6.9 µM (inactive)
same,GI50,Hs-578T,13.7 µM (inactive)
same,GI50,IGROV-1,4.94 µM (inactive)
same,GI50,K562,3.48 µM (inactive)
same,GI50,KM12,12 µM (inactive)
same,GI50,LOX IMVI,5.16 µM (inactive)
same,GI50,M14,7.8 µM (inactive)
same,GI50,MCF7,6.61 µM (inactive)
same,GI50,MDA-MB-231,6.7 µM (inactive)
same,GI50,MDA-MB-435,11 µM (inactive)
same,GI50,MDA-N,9.73 µM (inactive)
same,GI50,MOLT-4,1.95 µM (inactive)
same,GI50,Malme-3M,15.5 µM (inactive)
same,GI50,NCI-H226,24.5 µM (inactive)
same,GI50,NCI-H23,12 µM (inactive)
same,GI50,NCI-H460,18.7 µM (inactive)
same,GI50,NCI-H522,5.18 µM (inactive)
same,GI50,NCI/ADR-RES,20 µM (inactive)
same,GI50,OVCAR-3,6.32 µM (inactive)
same,GI50,OVCAR-4,15.3 µM (inactive)
same,GI50,OVCAR-5,13 µM (inactive)
same,GI50,OVCAR-8,11.8 µM (inactive)
same,GI50,PC-3,11.1 µM (inactive)
same,GI50,RPMI-8226,11.6 µM (inactive)
same,GI50,RXF 393,12.3 µM (inactive)
same,GI50,SF-268,12.4 µM (inactive)
same,GI50,SF-295,14.3 µM (inactive)
same,GI50,SF-539,10.8 µM (inactive)
same,GI50,SK-MEL-28,15.5 µM (inactive)
same,GI50,SK-MEL-2,12.2 µM (inactive)
same,GI50,SK-MEL-5,14.8 µM (inactive)
same,GI50,SN12C,14.6 µM (inactive)
same,GI50,SNB-19,8.32 µM (inactive)
same,GI50,SR,3.01 µM (inactive)
same,GI50,SW-620,6.27 µM (inactive)
same,GI50,TK-10,18.6 µM (inactive)
same,GI50,U-251,4.62 µM (inactive)
same,GI50,UACC-257,15.7 µM (inactive)
same,GI50,UACC-62,16.8 µM (inactive)
same,GI50,UO-31,10 µM (inactive)
Nc1c2c(nc3ccccc13)-c1ccccc1CC2,GI50,786-0,3.52 µM (inactive)
same,GI50,A498,3.16 µM (inactive)
same,GI50,ACHN,3.56 µM (inactive)
same,GI50,BT-549,13.2 µM (inactive)
same,GI50,CCRF-CEM,3.4 µM (inactive)
same,GI50,COLO 205,3.76 µM (inactive)
same,GI50,HCC 2998,1.43 µM (inactive)
same,GI50,HCT-116,3.76 µM (inactive)
same,GI50,HCT-15,3.96 µM
same,GI50,HL-60,0.942 µM (active)
same,GI50,HOP-92,8.09 µM (inactive)
same,GI50,Hs-578T,16.4 µM (inactive)
same,GI50,IGROV-1,3.82 µM (inactive)
same,GI50,K562,3.56 µM (inactive)
same,GI50,LOX IMVI,4.34 µM (inactive)
same,GI50,MCF7,1.85 µM (inactive)
same,GI50,MDA-MB-231,3.88 µM (inactive)
same,GI50,MDA-N,4.19 µM (inactive)
same,GI50,MOLT-4,2.38 µM (inactive)
same,GI50,Malme-3M,8.49 µM (inactive)
same,GI50,NCI-H226,12.1 µM (inactive)
same,GI50,NCI-H23,10.6 µM (inactive)
same,GI50,NCI-H460,2.12 µM (inactive)
same,GI50,NCI-H522,8.67 µM (inactive)
same,GI50,NCI/ADR-RES,5.32 µM (inactive)
same,GI50,OVCAR-8,4.37 µM (inactive)
same,GI50,PC-3,3.59 µM (inactive)
same,GI50,RPMI-8226,4.09 µM (inactive)
same,GI50,SF-268,7.82 µM (inactive)
same,GI50,SF-539,3.24 µM (inactive)
same,GI50,SK-MEL-28,10.4 µM (inactive)
same,GI50,SK-MEL-2,11 µM (inactive)
same,GI50,SK-MEL-5,4.04 µM (inactive)
same,GI50,SN12C,4.06 µM (inactive)
same,GI50,SR,2.33 µM (inactive)
same,GI50,SW-620,3.15 µM (inactive)
same,GI50,TK-10,3.96 µM (inactive)
same,GI50,U-251,4.17 µM (inactive)
same,GI50,UACC-257,2.82 µM (inactive)
same,GI50,UACC-62,9.68 µM (inactive)
